Read-outs that look alike come from different tables or passages of the source.
Columns and labels:
[1] = biological target: T1, PBP3 from Escherichia coli (Escherichia coli, UniProt P0AD68); test: Fluorescence polarization competition binding assay with Bocillin-FL
T1 construct: made in house
From the text: To determine the ability of boronic acid-based test PBP inhibitors to bind Penicillin Binding Proteins (PBPs), Bocillin-FL (fluorescently-labeled penicillin V; ThermoFisher Scientific) was used in a fluorescence polarization (FP) competition binding assay to assess boronic acid PBP inhibitor binding to PBP3 from Escherichia coli. PBP3 from Escherichia coli was cloned and purified as described previously (King, D. T, et al., ACS Infectious Diseases 2015, 1, 175-184). To establish assay conditions for competition binding, an enzyme titration/saturation binding experiment was performed. Bocillin-FL was prepared at […] in a buffer comprised of 50 mM Hepes (pH 8.0), 300 mM NaCl and 5% (v/v) glycerol. Saturation binding was performed by mixing […] of PBP3 ranging in concentrations from […] with 40 μl of the 0.2 μM Bocillin-FL solution, in individual wells of a black 384-well microplate. FP was measured immediately upon addition of PBP3 (Ex, Em), using a Cytation3 (BioTek) microplate reader and measured continuously for 60 minutes. […] The competition binding assay was validated using the beta-lactam ampicillin, with Bocillin-FL at a final concentration of 0.1 μM, PBP3 at a final concentration of 1.5 μM and concentrations of ampicillin from 0-1000 μM. PBP3 was incubated with ampicillin at different concentrations in a black 384-well microplate (Corning) for 30 minutes, then Bocillin-FL added and the FP immediately measured for 60 minutes. […] Binding assays for boronic acid PBP inhibitors were performed in an identical fashion. Representative results are shown in Table 3, where A represents a potency of >500 μM, B represents a potency between 30 μM and 500 μM inclusive, and C represents a potency of <30 μM. NT=Not Tested.

[2] = biological target: T2, PBP1a from Escherichia coli (Escherichia coli, UniProt P02918); test: Radioligand competition binding assay with 14C-labeled boronic acid probe (Example 96); details: PBP 0.1 μM
T2 construct: made in house
T2 sequence (P02918 whole entry): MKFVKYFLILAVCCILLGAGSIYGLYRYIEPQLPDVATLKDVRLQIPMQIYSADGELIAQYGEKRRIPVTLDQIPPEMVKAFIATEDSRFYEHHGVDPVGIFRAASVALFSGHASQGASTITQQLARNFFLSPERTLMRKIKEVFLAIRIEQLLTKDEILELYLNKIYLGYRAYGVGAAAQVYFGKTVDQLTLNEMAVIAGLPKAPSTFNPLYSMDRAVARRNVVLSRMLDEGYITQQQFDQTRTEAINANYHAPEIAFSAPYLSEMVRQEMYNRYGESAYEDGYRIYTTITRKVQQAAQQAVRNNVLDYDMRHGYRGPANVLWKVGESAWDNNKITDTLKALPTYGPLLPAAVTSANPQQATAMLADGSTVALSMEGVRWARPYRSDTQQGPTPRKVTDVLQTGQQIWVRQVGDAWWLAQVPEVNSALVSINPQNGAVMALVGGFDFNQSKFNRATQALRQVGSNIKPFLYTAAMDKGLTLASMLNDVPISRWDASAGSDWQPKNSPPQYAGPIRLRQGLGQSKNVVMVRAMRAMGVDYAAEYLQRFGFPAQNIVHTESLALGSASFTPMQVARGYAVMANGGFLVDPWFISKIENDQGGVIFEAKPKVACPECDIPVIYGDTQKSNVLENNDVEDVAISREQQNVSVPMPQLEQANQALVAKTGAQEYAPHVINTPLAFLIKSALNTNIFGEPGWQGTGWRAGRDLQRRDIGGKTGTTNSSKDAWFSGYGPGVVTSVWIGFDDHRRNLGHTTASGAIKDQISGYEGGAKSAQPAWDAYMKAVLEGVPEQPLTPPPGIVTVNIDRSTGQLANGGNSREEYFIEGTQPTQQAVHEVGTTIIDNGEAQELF
From the text: To determine the ability of boronic acid-based test PBP inhibitors to bind Penicillin Binding Proteins (PBPs), a radio-labelled boronic acid PBP inhibitor (Example 96) was used in competition binding assays to determine boronic acid PBP inhibitor binding to PBP1a or PBP1b from Escherichia coli. PBP1a and PBP1b were purified as described previously (Bertsche, U.; et al., J. Biol. Chem. 2005, 280 (45), 38096-38101; Born, P.; et al., J Biol. Chem. 2006. 281 (37), 26985-26993). To establish assay conditions for competition binding, an enzyme titration/saturation binding experiment was performed. Saturation binding was performed in a buffer comprised of 20 mM Tris (pH 7.5), 500 mM NaCl and 0.1% (v/v) TritonX-100, with PBP1a/PBP1b at a final concentration of 0.1 μM and 96 at final concentrations ranging from 0-100 μM. Mixtures were incubated for 60 minutes, then applied to Zeba Spin Desalting columns or plates (ThermoFisher Scientific) and centrifuged at 1000-1500×g for 2 minutes. The flow through, containing PBP bound with 96, was recovered and 100 μL mixed with 5 mL of UltimaGold liquid scintillation cocktail (Perkin Elmer), and the radioactivity counted using a Beckman Coulter LS 6500 Multipurpose scintillation counter. PBP binding of 96 approached saturation at 20 μM of ^14C-labeled probe. The competition binding assay was validated using the beta-lactam ampicillin, with 96 at a final concentration of 20 μM, PBP1a/PBP1b at a final concentration of 0.1 μM. PBP1a/PBP1b was incubated with ampicillin in a 96-well microplate for 60 minutes, then 96 was added and the mixtures incubated for an additional 60 minutes. The mixtures were then applied to Zeba Spin desalting plates and centrifuged at 1000×g for 2 minutes. The flow through was recovered and 100 μl mixed with 5 ml of UltimaGold liquid scintillation cocktail and the radioactivity counted. Ampicillin inhibited binding of 96 with an EC50 (the concentration of inhibitor required to reduce binding of 96 by 50%) of less than 0.5 μM. Binding assays with boronic acid PBP inhibitors were performed in an identical fashion. The potency of boronic acid PBP inhibitors was reported as the EC50 value.
Representative results are shown in Table 5, where A represents a potency of >100 μM, B represents a potency between 10 μM and 100 μM inclusive, and C represents a potency of <10 μM. NT=Not Tested.

S. aureus ATCC 29213 = test: Broth microdilution MIC assay; format: cell-based; details: Staphylococcus aureus, ATCC29213; broth microdilution, 16-20 hours at 37° C.; read-out: S. aureus 29213 MIC
How it was run: (§1)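 Per CLSI: log-phase cultures (3-5 h, 37° C) seeded at 5×10^5 CFU/mL into cation-supplemented Mueller-Hinton broth containing 2-fold compound dilutions. After 16-20 h at 37° C, MIC taken visually as lowest growth-free well, for S. aureus ATCC 29213 and E. coli 901C.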

[3] = test system: hyper-permeable E. coli 901C; test: Broth microdilution MIC assay; format: cell-based; details: Escherichia coli, read-out: E. coli 901C MIC
How it was run: as §1

E. coli DH5α/pLBII = test: Broth microdilution MIC assay, empty vector control strain; format: cell-based; details: Escherichia coli, read-out: E. coli DH5α/pLBII Microbiological Activity (MIC)
How it was run: (§2)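 CLSI broth microdilution in cation-supplemented Mueller-Hinton broth, 2-fold compound dilutions, 5×10^5 CFU/mL inoculum, 16-20 h at 37° C, MIC read visually as lowest concentration without growth. E. coli DH5α carries CTX-M15 on pLBII under Lac promoter, or empty pLBII as control.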

[4] = test system: E. coli DH5α/pLBII-CTX-M15; test: Broth microdilution MIC assay, engineered strain producing CTX-M15; format: cell-based, Escherichia coli; details: Escherichia coli, read-out: E. coli DH5α/pLBII-CTX-M15 Microbiological Activity (MIC)
How it was run: as §2

[5] = 14C-labeled probe 96 at 20 μM, read-out: E. coli K12 PBP1a EC50

T1 sequence (P0AD68 1-577): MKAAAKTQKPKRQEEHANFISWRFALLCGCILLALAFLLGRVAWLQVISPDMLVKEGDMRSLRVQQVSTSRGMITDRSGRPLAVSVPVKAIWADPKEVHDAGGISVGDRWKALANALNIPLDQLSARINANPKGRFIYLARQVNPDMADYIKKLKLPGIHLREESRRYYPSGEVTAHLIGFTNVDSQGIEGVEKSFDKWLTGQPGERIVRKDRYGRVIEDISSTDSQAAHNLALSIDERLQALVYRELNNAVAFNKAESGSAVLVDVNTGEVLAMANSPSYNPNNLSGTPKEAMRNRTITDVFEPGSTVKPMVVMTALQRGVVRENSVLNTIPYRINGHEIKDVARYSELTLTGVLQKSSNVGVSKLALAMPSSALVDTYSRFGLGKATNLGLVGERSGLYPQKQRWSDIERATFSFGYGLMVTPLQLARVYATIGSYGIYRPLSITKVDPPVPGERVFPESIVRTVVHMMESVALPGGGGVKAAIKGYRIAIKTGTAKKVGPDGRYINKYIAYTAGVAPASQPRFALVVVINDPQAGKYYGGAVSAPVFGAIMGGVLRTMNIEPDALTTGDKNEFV

Row | Structure (SMILES) | EC50 [1] [µM] | EC50 [2, 5] [µM] | MIC (S. aureus ATCC 29213) [µg/mL] | MIC [3] [µg/mL] | MIC (E. coli DH5α/pLBII) [µg/mL] | MIC [4] [µg/mL] | EC50 ([2]; E. coli K12 PBP1a EC50, 14C-labeled probe 96 at 20 μM) [µM]
1 | CCN1CCN(C(=O)N[C@@H](C(=O)N[C@H]2Cc3cccc(C(=O)O)c3OB2O)[C@H](C)O)C(=O)C1=O [Example 47, (R)-3-((2R,3S)-2-(4-Ethyl-2,3-dioxopiperazine-1-carboxamido)-3-hydroxy-butanamido)-2-hydroxy-3,4-dihydro-2H-benzo[e][1,2]oxaborinine-8-carboxylic acid] | > 500 | < 10 | > 128 | < 64 | 8 to 16 | 8 to 16 | –
2 | CCN1CCN(C(=O)N[C@@H](C(=O)N[C@H]2Cc3cccc(C(=O)O)c3OB2O)[C@@H](C)O)C(=O)C1=O [Example 48, (R)-3-((2R,3R)-2-(4-Ethyl-2,3-dioxopiperazine-1-carboxamido)-3-hydroxy-butanamido)-2-hydroxy-3,4-dihydro-2H-benzo[e][1,2]oxaborinine-8-carboxylic acid] | 30 to 500 | < 10 | > 128 | < 64 | 8 to 16 | 8 to 16 | –
3 | CCN1CCN(CC(=O)NC(C(=O)N[C@H]2Cc3cccc(C(=O)O)c3OB2O)c2csc(N)n2)C(=O)C1=O (stereo partly drawn) [Example 45, (3R)-3-(2-(2-aminothiazol-4-yl)-2-(2-(4-ethyl-2,3-dioxopiperazin-1-yl)acetamido)acetamido)-2-hydroxy-3,4-dihydro-2H-benzo[e][1,2]oxaborinine-8-carboxylic acid] | 30 to 500 | < 10 | > 128 | < 64 | 32 to 64 | 32 to 64 | –
4 | CCN1CCN(C(=O)NC(C(=O)N[C@H]2Cc3cc(OC)cc(C(=O)O)c3OB2O)c2csc(N)n2)C(=O)C1=O (stereo partly drawn) [Example 38, (3R)-3-(2-(2-aminothiazol-4-yl)-2-(4-ethyl-2,3-dioxopiperazine-1-carboxamido)acetamido)-2-hydroxy-6-methoxy-3,4-dihydro-2H-benzo[e][1,2]oxaborinine-8-carboxylic acid] | > 500 | < 10 | 64 to 128 | < 64 | 32 to 64 | 32 to 64 | –
5 | Nc1nc(C(NC(=O)N2CCNC2=O)C(=O)N[C@H]2Cc3cccc(C(=O)O)c3OB2O)cs1 (stereo partly drawn) [Example 19, (3R)-3-(2-(2-aminothiazol-4-yl)-2-(2-oxoimidazolidine-1-carboxamido)acetamido)-2-hydroxy-3,4-dihydro-2H-benzo[e][1,2]oxaborinine-8-carboxylic acid] | 30 to 500 | < 10 | 64 to 128 | < 64 | 32 to 64 | 32 to 64 | –
6 | Nc1nc(C(NC(=O)N2CCN(C3CC3)C(=O)C2=O)C(=O)N[C@H]2Cc3cccc(C(=O)O)c3OB2O)cs1 (stereo partly drawn) [Example 44, (3R)-3-(2-(2-aminothiazol-4-yl)-2-(4-cyclopropyl-2,3-dioxopiperazine-1-carboxamido)acetamido)-2-hydroxy-3,4-dihydro-2H-benzo[e][1,2]oxaborinine-8-carboxylic acid] | 30 to 500 | < 10 | 64 to 128 | < 64 | 32 to 64 | 32 to 64 | –
7 | Nc1nc(C(NC(=O)N2CCS(=O)(=O)CC2)C(=O)N[C@H]2Cc3cccc(C(=O)O)c3OB2O)cs1 (stereo partly drawn) [Example 65, (3R)-3-(2-(2-aminothiazol-4-yl)-2-(1,1-dioxidothiomorpholine-4-carboxamido)acetamido)-2-hydroxy-3,4-dihydro-2H-benzo[e][1,2]oxaborinine-8-carboxylic acid] | 30 to 500 | – | 64 to 128 | < 64 | 32 to 64 | 32 to 64 | < 10
8 | Nc1nc(C(=O)NC(C(=O)N[C@H]2Cc3cccc(C(=O)O)c3OB2O)c2csc(N)n2)cs1 (stereo partly drawn) [Example 17, (3R)-3-(2-(2-aminothiazol-4-yl)-2-(2-aminothiazole-4-carboxamido)acetamido)-2-hydroxy-3,4-dihydro-2H-benzo[e][1,2]oxaborinine-8-carboxylic acid] | 30 to 500 | > 100 | < 64 | < 64 | 32 to 64 | 32 to 64 | –
9 | CS(=O)(=O)N1CCN(C(=O)NC(C(=O)N[C@H]2Cc3cccc(C(=O)O)c3OB2O)c2csc(N)n2)C1=O (stereo partly drawn) [Example 20, (3R)-3-(2-(2-aminothiazol-4-yl)-2-(3-(methylsulfonyl)-2-oxoimidazolidine-1-carboxamido)acetamido)-2-hydroxy-3,4-dihydro-2H-benzo[e][1,2]oxaborinine-8-carboxylic acid] | 30 to 500 | < 10 | 64 to 128 | < 64 | 32 to 64 | 32 to 64 | –
10 | CCN1CCN(C(=O)N[C@@H](C(=O)N[C@H]2Cc3cccc(C(=O)O)c3OB2O)C(C)(C)C)C(=O)C1=O [Example 85, (R)-3-((R)-2-(4-ethyl-2,3-dioxopiperazine-1-carboxamido)-3,3-dimethylbutanamido)-2-hydroxy-3,4-dihydro-2H-benzo[e][1,2]oxaborinine-8-carboxylic acid] | < 30 | < 10 | > 128 | < 64 | – | 128 to 256 | –
11 | Nc1nc(C(NC(=O)N2CCN(Cc3ccccc3)C(=O)C2=O)C(=O)N[C@H]2Cc3cccc(C(=O)O)c3OB2O)cs1 (stereo partly drawn) [Example 49, (3R)-3-(2-(2-aminothiazol-4-yl)-2-(4-benzyl-2,3-dioxopiperazine-1-carboxamido)acetamido)-2-hydroxy-3,4-dihydro-2H-benzo[e][1,2]oxaborinine-8-carboxylic acid] | < 30 | – | 64 to 128 | < 64 | 128 to 256 | 128 to 256 | –
12 | CCN1CCN(C(=O)N[C@@H](CO)C(=O)N[C@H]2Cc3cccc(C(=O)O)c3OB2O)C(=O)C1=O [Example 32, (R)-3-((S)-2-(4-Ethyl-2,3-dioxopiperazine-1-carboxamido)-3-hydroxy-propanamido)-2-hydroxy-3,4-dihydro-2H-benzo[e][1,2]oxaborinine-8-carboxylic acid] | > 500 | – | > 128 | > 128 | > 512 | > 512 | –

From US11332485B2, “Penicillin-binding protein inhibitors” (priority 2017, dated 2022)
